# Molecular target: T1, human vasopressin V1b receptor (Homo sapiens, UniProt P47901)
# T1 construct: expressed in transfected cells; host or cells: CHO-K1 (cell line hV1b_3H2_CHO), membrane preparation
# T1 sequence (P47901 1-424): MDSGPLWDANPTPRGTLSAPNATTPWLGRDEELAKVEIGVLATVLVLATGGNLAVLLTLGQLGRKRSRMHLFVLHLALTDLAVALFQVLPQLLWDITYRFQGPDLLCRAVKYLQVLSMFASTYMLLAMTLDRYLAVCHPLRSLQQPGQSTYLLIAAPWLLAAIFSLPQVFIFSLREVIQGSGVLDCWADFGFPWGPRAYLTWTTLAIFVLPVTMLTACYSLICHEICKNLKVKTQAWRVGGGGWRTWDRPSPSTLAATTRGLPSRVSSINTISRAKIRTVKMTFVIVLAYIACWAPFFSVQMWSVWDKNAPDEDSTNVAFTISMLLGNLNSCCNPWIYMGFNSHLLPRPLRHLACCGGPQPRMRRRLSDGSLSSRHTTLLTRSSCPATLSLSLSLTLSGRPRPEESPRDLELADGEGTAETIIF
# Assay: Vasopressin V1b receptor binding test
# Conditions: membranes of CHO-K1 cells with human V1b receptor, displacement of 1.5 nM 3H-AVP; for compounds with more than one stereogenic center the diastereomer with greater affinity
# Summary of the method: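 Radioligand displacement on membranes carrying human V1b receptor in 50 mM tris, 10 mM MgCl2, 0.1% BSA, pH 7.4, 2% DMSO final; 60 min at room temperature, nonspecific binding with 1 μM AVP. Free ligand removed by filtration, bound counted by liquid scintillation, Ki from nonlinear regression of triplicates.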
row,Compound,Ki
1,"COc1ccc(S(=O)(=O)N2C(=O)C(c3cc(CN4CCN(C)CC4)ccc3OC)(N3CCCC3c3ccccn3)c3cc(Cl)ccc32)cc1 (centres unmarked) [Example 124, 5-Chloro-1-(4-methoxybenzenesulfonyl)-3-[2-methoxy-5-(4-methylpiperazin-1-ylmethyl)phenyl]-3-(2-pyridin-2-yl-pyrrolidin-1-yl)-1,3-dihydroindol-2-one]",10 to 100 nM
2,"COc1ccc(S(=O)(=O)N2C(=O)C(c3cc(CN4CCNC(=O)C4)ccc3OC)(N3CCC[C@H]3c3ncco3)c3cc(Cl)ccc32)cc1 (stereo partly drawn) [Example 125, 5-Chloro-1-(4-methoxybenzenesulfonyl)-3-[2-methoxy-5-(3-oxopiperazin-1-ylmethyl)phenyl]-3-((S)-2-oxazol-2-yl-pyrrolidin-1-yl)-1,3-dihydroindol-2-one]",10 to 100 nM
3,"COc1ccc(S(=O)(=O)N2C(=O)C(c3cc(CN4CCNCC4)ccc3OC)(N3CCCC3c3ccccn3)c3cc(Cl)ccc32)cc1 (centres unmarked) [Example 126, 5-Chloro-1-(4-methoxybenzenesulfonyl)-3-(2-methoxy-5-piperazin-1-ylmethylphenyl)-3-(2-pyridin-2-yl-pyrrolidin-1-yl)-1,3-dihydroindol-2-one]",100 to 1000 nM
4,"COc1ccc(S(=O)(=O)N2C(=O)C(c3ccc(CN4CCN(CCO)CC4)cc3OC)(N3CCC[C@H]3c3ncco3)c3cc(Cl)ccc32)cc1 (stereo partly drawn) [Example 127, 5-Chloro-3-{4-[4-(2-hydroxyethyl)piperazin-1-ylmethyl]-2-methoxyphenyl}-1-(4-methoxybenzenesulfonyl)-3-((S)-2-oxazol-2-yl-pyrrolidin-1-yl)-1,3-dihydroindol-2-one]",< 10 nM
5,"COc1ccc(S(=O)(=O)N2C(=O)C(N[C@@H](C)c3ncco3)(c3cc(CN4CCN(C)CC4)ccc3OC)c3cc(Cl)ccc32)cc1 (stereo partly drawn) [Example 128, 5-Chloro-1-(4-methoxybenzenesulfonyl)-3-[2-methoxy-5-(4-methylpiperazin-1-ylmethyl)phenyl]-3-((S)-1-oxazol-2-yl-ethylamino)-1,3-dihydroindol-2-one]",< 10 nM
6,"CNCc1ccc(OC)c(C2(NCc3ncco3)C(=O)N(S(=O)(=O)c3ccc(OC)cc3)c3ccc(Cl)cc32)c1 (centres unmarked) [Example 129, 5-Chloro-1-(4-methoxybenzenesulfonyl)-3-(2-methoxy-5-methylaminomethylphenyl)-3-[(oxazol-2-ylmethyl)amino]-1,3-dihydroindol-2-one]",10 to 100 nM
7,"COc1ccc(S(=O)(=O)N2C(=O)C(c3cc(CNCC(F)(F)F)ccc3OC)(N3CCC[C@H]3c3ncco3)c3cc(Cl)ccc32)cc1 (stereo partly drawn) [Example 130, 5-Chloro-1-(4-methoxybenzenesulfonyl)-3-{2-methoxy-5-[(2,2,2-trifluoroethylamino)methyl]phenyl}-3-((S)-2-oxazol-2-yl-pyrrolidin-1-yl)-1,3-dihydroindol-2-one]",10 to 100 nM
8,"CCNCc1ccc(C2(N3CCC[C@H]3c3ncco3)C(=O)N(S(=O)(=O)c3ccc(OC)cc3)c3ccc(Cl)cc32)c(OC)c1 (stereo partly drawn) [Example 131, 5-Chloro-3-(4-ethylaminomethyl-2-methoxyphenyl)-1-(4-methoxybenzenesulfonyl)-3-((S)-2-oxazol-2-yl-pyrrolidin-1-yl)-1,3-dihydroindol-2-one]",10 to 100 nM
9,"CCCNCc1ccc(OC)c(C2(N3CCCC3c3nccs3)C(=O)N(S(=O)(=O)c3ccc(OC)cc3)c3ccc(Cl)cc32)c1 (centres unmarked) [Example 132, 5-Chloro-1-(4-methoxybenzenesulfonyl)-3-(2-methoxy-5-propylaminomethylphenyl)-3-(2-thiazol-2-yl-pyrrolidin-1-yl)-1,3-dihydroindol-2-one]",10 to 100 nM
10,"COc1ccc(S(=O)(=O)N2C(=O)C(N[C@@H](C)c3ncco3)(c3cc(CN(C)C)ccc3OC)c3cc(Cl)ccc32)cc1 (stereo partly drawn) [Example 133, 5-Chloro-3-(5-dimethylaminomethyl-2-methoxyphenyl)-1-(4-methoxybenzenesulfonyl)-3-((S)-1-oxazol-2-yl-ethylamino)-1,3-dihydroindol-2-one]",10 to 100 nM
11,"CCCNCc1ccc(OC)c(C2(N[C@@H](C)c3ncco3)C(=O)N(S(=O)(=O)c3ccc(OC)cc3)c3ccc(Cl)cc32)c1 (stereo partly drawn) [Example 134, 5-Chloro-1-(4-methoxybenzenesulfonyl)-3-(2-methoxy-5-propylaminomethylphenyl)-3-((S)-1-oxazol-2-yl-ethylamino)-1,3-dihydroindol-2-one]",10 to 100 nM
12,"COc1ccc(S(=O)(=O)N2C(=O)C(N[C@@H](C)c3ncco3)(c3cc(CN4CCNCC4)ccc3OC)c3cc(Cl)ccc32)cc1 (stereo partly drawn) [Example 135, 5-Chloro-1-(4-methoxybenzenesulfonyl)-3-(2-methoxy-5-(piperazin-1-ylmethyl)phenyl)-3-((S)-1-oxazol-2-yl-ethylamino)-1,3-dihydroindol-2-one]",< 10 nM
13,"COc1ccc(S(=O)(=O)N2C(=O)C(c3ccc(CNC(C)C)cc3OC)(N3CCC[C@H]3c3ncco3)c3cc(Cl)ccc32)cc1 (stereo partly drawn) [Example 136, 5-Chloro-3-[4-(isopropylaminomethyl)-2-methoxyphenyl]-1-(4-methoxybenzenesulfonyl)-3-((S)-2-oxazol-2-yl-pyrrolidin-1-yl)-1,3-dihydroindol-2-one]",10 to 100 nM
14,"COc1ccc(S(=O)(=O)N2C(=O)C(c3ccc(CNCCO)cc3OC)(N3CCC[C@H]3c3ncco3)c3cc(Cl)ccc32)cc1 (stereo partly drawn) [Example 137, 5-Chloro-3-{4-[(2-hydroxyethylamino)methyl]-2-methoxyphenyl}-1-(4-methoxybenzenesulfonyl)-3-((S)-2-oxazol-2-yl-pyrrolidin-1-yl)-1,3-dihydroindol-2-one]",10 to 100 nM
15,"COc1ccc(S(=O)(=O)N2C(=O)C(c3ccc(CN4CCNC(=O)C4)cc3OC)(N3CCC[C@H]3c3ncco3)c3cc(Cl)ccc32)cc1 (stereo partly drawn) [Example 138, 5-Chloro-1-(4-methoxybenzenesulfonyl)-3-[2-methoxy-4-(3-oxopiperazin-1-ylmethyl)phenyl]-3-((S)-2-oxazol-2-yl-pyrrolidin-1-yl)-1,3-dihydroindol-2-one]",10 to 100 nM
16,"COc1ccc(S(=O)(=O)N2C(=O)C(c3cc(CNC(C)(C)C)ccc3OC)(N3CCC[C@H]3c3ncco3)c3cc(Cl)ccc32)cc1 (stereo partly drawn) [Example 139, 5-Chloro-3-[5-(tert-butylaminomethyl)-2-methoxyphenyl]-1-(4-methoxybenzenesulfonyl)-3-((S)-2-oxazol-2-yl-pyrrolidin-1-yl)-1,3-dihydroindol-2-one]",10 to 100 nM
17,"COc1ccc(S(=O)(=O)N2C(=O)C(N[C@@H](C)c3ncco3)(c3cc(CNCCO)ccc3OC)c3cc(Cl)ccc32)cc1 (stereo partly drawn) [Example 140, 5-Chloro-3-{5-[(2-hydroxyethylamino)methyl]-2-methoxyphenyl}-1-(4-methoxybenzenesulfonyl)-3-((S)-1-oxazol-2-yl-ethylamino)-1,3-dihydroindol-2-one]",< 10 nM
18,"COc1ccc(CN2CCN(C)CC2)cc1C1(N2CCC[C@H]2c2ncco2)C(=O)N(S(=O)(=O)c2ccc(OC(F)(F)F)cc2)c2ccc(Cl)cc21 (stereo partly drawn) [Example 141, 5-Chloro-3-[2-methoxy-5-(4-methylpiperazin-1-ylmethyl)phenyl]-3-((S)-2-oxazol-2-yl-pyrrolidin-1-yl)-1-(4-trifluoromethoxybenzenesulfonyl)-1,3-dihydroindol-2-one]",100 to 1000 nM
19,"COc1ccc(S(=O)(=O)N2C(=O)C(c3cc(CN4CCN(CCO)CC4)ccc3OC)(N3CCC[C@H]3c3ncco3)c3cc(C#N)ccc32)cc1 (stereo partly drawn) [Example 142, 5-Cyano-3-{5-[4-(2-hydroxyethyl)piperazin-1-ylmethyl]-2-methoxyphenyl}-1-(4-methoxybenzenesulfonyl)-3-((S)-2-oxazol-2-yl-pyrrolidin-1-yl)-1,3-dihydroindol-2-one]",< 10 nM
20,"COc1ccc(S(=O)(=O)N2C(=O)C(c3cc(CN4CCNC(=O)C4)ccc3OC)(N3CCC[C@H]3c3ncco3)c3cc(C#N)ccc32)cc1 (stereo partly drawn) [Example 143, 5-Cyano-1-(4-methoxy-benzenesulfonyl)-3-[2-methoxy-5-(3-oxo-piperazin-1-ylmethyl)phenyl]-3-((S)-2-oxazol-2-yl-pyrrolidin-1-yl)-1,3-dihydroindol-2-one]",< 10 nM
21,"COc1ccc(S(=O)(=O)N2C(=O)C(c3cc(CN4CCCN(C)CC4)ccc3OC)(N3CCC[C@H]3c3ncco3)c3cc(C#N)ccc32)cc1 (stereo partly drawn) [Example 144, 5-Cyano-1-(4-methoxybenzenesulfonyl)-3-[2-methoxy-5-(4-methyl-[1,4]diazepan-1-ylmethyl)phenyl]-3-((S)-2-oxazol-2-yl-pyrrolidin-1-yl)-1,3-dihydroindol-2-one]",< 10 nM
22,"COc1ccc(CN2CCN(C)CC2)cc1C1(N2CCC[C@H]2c2ncco2)C(=O)N(S(=O)(=O)c2ccc(OC(F)F)cc2)c2ccc(Cl)cc21 (stereo partly drawn) [Example 145, 5-Chloro-1-(4-difluoromethoxybenzenesulfonyl)-3-[2-methoxy-5-(4-methylpiperazin-1-ylmethyl)phenyl]-3-((S)-2-oxazol-2-yl-pyrrolidin-1-yl)-1,3-dihydroindol-2-one]",10 to 100 nM
23,"COc1ccc(S(=O)(=O)N2C(=O)C(c3ccc(CN4CCOCC4)cc3OC)(N3CCC[C@H]3c3ncco3)c3cc(Cl)ccc32)cc1 (stereo partly drawn) [Example 146, 5-Chloro-1-(4-methoxybenzenesulfonyl)-3-(2-methoxy-4-(morpholin-4-ylmethyl)phenyl)-3-((S)-2-oxazol-2-yl-pyrrolidin-1-yl)-1,3-dihydroindol-2-one]",10 to 100 nM

# Source: US8044079B2, “Substituted oxindole derivatives, medicaments containing said derivatives and use thereof” (Abbott GmbH & Co. KG, priority 2005, dated 2011)
